What was measured:
HaCaT cells [1] = experiment: Cell death on Zeiss Live Cell Observer after UV light; type: cell-based
Experimental: (§1) One day prior to imaging, HaCaT or J2 cells (20,000 approx.) were seeded into each well of a 6 well or 24 well plastic plate. Cells were allowed to incubate overnight in serum containing media. One to four hours before imaging the normal media was replaced with compound containing media, 1 mL per well. The cells were imaged in a 37° C. heated chamber and supplied with 5% CO2. Zeiss Live Cell Observer microscope: OSRAM 1×HBO 103 W/2 100 Watt Mercury Bulb, DAPI Excitation filter=335-385 nm, DAPI Emission filter=420-470 nm. Note: Cells were imaged in DMEM media which contains phenol red.

HaCaT cells [2] = experiment: Cell death on Zeiss 880 confocal, 405 nm laser light; type: cell-based, human; details: 10 μM; for membrane blebbing on repeated exposures to 405 nm laser: up to 47 exposures
Experimental: One day prior to imaging, HaCaT cells (4000 approx.) were seeded into each well of an 8 well glass slide. Cells were allowed to incubate overnight in serum containing media. One hour before imaging the normal media was replaced with compound containing media, 1 mL per well. The cells were imaged in a 37° C. heated chamber using the Zeiss LSM 880 with Airyscan confocal laser scanning microscope. Note: Cells were imaged in DMEM media which contains phenol red.
Images of 10 μM compound treated cells were taken every twenty minutes and at each time point a treatment of 405 nm light at 50% laser strength was applied.

HaCaT cells [3] = experiment: ROS staining (Superoxide Detection Reagent, CellRox); type: cell-based, human; details: for superoxide stain fluorescence after UV exposure: UV treatment, rhodamine filter, 60-260 seconds after UV
Experimental: One day prior to imaging, HaCaT cells (20,000 approx) were seeded into each well of a 24 well plastic plate. Cells were allowed to incubate overnight in serum containing media. Three hours prior to imaging, the media in each well was replaced with fresh serum containing media which included a 1:500 dilution of Superoxide Detection Reagent, CellRox. […] The cells were incubated with the ROS stain at 37° C. for one hour. An hour and a half before imaging, the media in the negative control well was replaced with N-acetyl-L-cysteine diluted in serum containing media (1 mL, 10 mM). One hour before imaging the media in all but one of the other wells was replaced with compound containing media, 1 mL per well. Thirty minutes prior to imaging, the media in the positive control well was replaced with pyocyanine diluted in serum containing media (1 mL, 500 μM). Pyocyanine induces ROS within 20-30 minutes. The cells were imaged in a heated chamber and supplied with 5% CO2. The cells were imaged in a 37° C. heated chamber using the Zeiss LSM 880 with Airyscan confocal laser scanning microscope. Cells were irradiated with 405 nm laser to activate compounds and ROS dye was excited with 633 nm laser Note: Cells were imaged in DMEM media which contains phenol red.
In order to gain more insight into the mode of action leading to cell death, we examined the photo-initiated ROS production using the redox reactive dye, CellRox, which fluoresces in response to oxidation by reactive oxygen species.

HaCaT cells [4] = experiment: Dose response of cell death after 10 s UV (time lapse imaging); details: Homo sapiens, light or radiation study, 10 seconds of UV (DAPI filter, 20× objective), 24 hours after initial irradiation, read-out: EC50 based on average viable fraction of the cellular population
Experimental: The speed of death was tested at a number of concentrations in order to determine an estimate for the EC50 (half maximal effective concentration) value. Morphological changes were recorded using time lapse imaging at 5 minute intervals. The time taken between 10 s of UV light treatment and the first sign of damage to the cell membranes was recorded. Each cell in the field of view was treated as an individual data point, before taking an average of the time for each concentration.
Referring to FIG. 12: The dose-dependent response of HaCaT cells treated with DC324 and DC473 and 10 seconds of UV. UV exposure was administered through the DAPI filter and a 20× objective lens, phase 0.

[5] = system: J2 cells, a mouse fibroblast cell line; experiment: Cell death on Zeiss Live Cell Observer after UV light, J2 cells; type: cell-based
Experimental: as §1
Referring to FIG. 6: Cell death observations were consistent across different cell lines. […] A 10× objective lens at Phase 0 was used.

[6] = Absorbance and emission spectra; type: physicochemical; details: in chloroform
Experimental: FIG. 18 illustrates the combined normalised absorbance spectra of DC324, DC473 and DC474 in CHCl3 (10 μM);
FIG. 19 illustrates the combined normalised emission spectra of DC324, DC473 and DC474 in CHCl3 (100 nM) with excitation at their respective maximal absorption wavelengths;

Row | SMILES | membrane blebbing and cell death following exposure to UV light (initial screening) (HaCaT cells [1]; UV light) | membrane blebbing on repeated exposures to 405 nm laser (HaCaT cells [2]; 405 nm laser at 50% strength) | superoxide stain fluorescence after UV exposure (HaCaT cells [3]) | EC50 (HaCaT cells [4]) | Absorbance wavelength max [6] | Absorbance wavelength range [6] | other results
1 | CC1=C(/C=C/C(C)=C/C=C/C(C)=C/C(=O)O)C(C)(C)CCC1 [ATRA, All Trans-Retinoic Acid, reference compound] | no membrane blebbing was observed | No membrane blebbing was observed | produced an increased level of fluorescence post exposure to UV |  |  |  | 
2 | CC(C)N1CCC(C)(C)c2cc(C#Cc3ccc(/C=C/C(=O)O)cc3)ccc21 [DC324, (2E)-3-(4-2-[4,4-Dimethyl-1-(propan-2-yl)-1,2,3,4-tetrahydroquinolin-6-yl]ethynylphenyl)prop-2-enoic Acid] | induced membrane blebbing and cell death | Membrane blebbing was induced | indicates superoxide production | 200 nM | 400 max nm | 275-475 range nm | cells from the same well away from the site of UV exposure (HaCaT cells [1]; 10 μM, no UV exposure): healthy cells; time to necrosis after UV treatment (HaCaT cells [1]; 10 μM, single 10 s treatment with UV light, 10× objective lens, Phase 0): within two hours; speed of cell death induction compared with other compounds (HaCaT cells [1]; UV light): most rapid inducer of cell death; number of exposures until first bleb appeared (HaCaT cells [2]; 405 nm laser at 50% strength): 21 exposures; type of cell death induced by 405 nm light (HaCaT cells [2]; 405 nm laser at 50% strength): more characteristic of apoptosis than the cell death caused by UV light; cell death under 405 nm laser light versus DMSO control (HaCaT cells [2]; 405 nm light at 50% laser strength every twenty minutes): significantly different to the DMSO control; UV untreated cells in the compound, same well as treated area ([5]; no UV): appear healthy after 26 hours; membrane blebbing after a single UV treatment ([5]; single UV treatment, 10× objective lens, Phase 0): displayed membrane blebbing within two hours; Emission wavelength max ([6]; excitation at 400 nm): 560 max nm; Emission wavelength range ([6]; excitation at 400 nm): 450-700 range nm; CellRox (ROS-stimulated) relative fluorescence after irradiation (HaCaT cells [3]; 405 nm light, before vs after irradiation): steady increase
3 | C#CCN1CCC(C)(C)c2cc(C#Cc3ccc(/C=C/C(=O)OC)cc3)ccc21 [DC473] | induced membrane blebbing and cell death |  |  | 180 nM | 380 max nm | 275-450 range nm | Emission wavelength max ([6]; excitation at 380 nm): 520 max nm; Emission wavelength range ([6]; excitation at 380 nm): 440-680 range nm
4 | C#CCN1CCC(C)(C)c2cc(C#Cc3ccc(/C=C/C(=O)O)cc3)ccc21 [DC474, (2E)-3-(4-{2-[4,4-Dimethyl-1-(prop-2-yn-1-yl)-1,2,3,4-tetrahydroquinolin-6-yl]ethynyl}phenyl)prop-2-enoic Acid] |  |  |  |  | 380 max nm | 275-450 range nm | Emission wavelength max ([6]; excitation at 300 nm): 540 max nm; Emission wavelength range ([6]; excitation at 300 nm): 450-700 range nm; melting point: 193 to 195 °C (dec.)
5 | CC1(C)CCC(C)(C)c2cc(C#Cc3ccc(C(=O)O)cc3)ccc21 [EC23, reference compound] | no membrane blebbing was observed |  |  |  |  |  | 
